Measured values: EP0852225B1, “FIBRINOGEN RECEPTOR ANTAGONISTS AND MEDICINAL PREPARATIONS CONTAINING THE SAME AS THE ACTIVE INGREDIENT” (NIPPON STEEL CORPORATION, priority 1996, dated 1997)

Tested on: Human Platelet Aggregation
Test: Measurement of in vitro human platelet aggregation using PRP (collagen-induced, aggregometer light transmittance)
Format: cell-based
Settings: platelet aggregation inhibition in human PRP; collagen final concentration 5 µg/ml; 37°C
Procedure: Healthy male volunteers who had not taken any medicines for at least two weeks were selected as subjects. Blood was collected from the forearm vein of each subject on an empty stomach using a #19 needle and a plastic syringe preliminarily charged with 1/10 volume of a 3.8% sodium citrate solution. Immediately after the blood collection, the syringe was shaken gently to mix the blood with the sodium citrate solution. The mixed blood was centrifuged (1100 rpm, 250 g) at room temperature for 15 minutes and the rotation was stopped without applying the brake. Then, the supernatant was collected with a graduated pipette to obtain platelet-rich plasma (PRP). The PRP was stored at room temperature. The blood remaining after the centrifugation was further centrifuged (3500 rpm, 1500 g) at room temperature for 15 minutes and the rotation was stopped without applying the brake. The supernatant was collected to obtain platelet-poor plasma (PPP). After the preparation of the PRP, the number of platelets was counted and only samples containing 2 x 10^8 or more of platelets per milliliter were subjected to the following experiments.
Platelet aggregation was measured using an 8-channel aggregometer (Hematracer, Nikoh Bioscience, Tokyo, Japan) on the basis of the change in light transmittance through the PRP as follows.
First, the PPP and PRP (each 200 µl) were placed in glass cuvettes and incubated at 37°C. Thereafter, the transmittance was measured. The transmittance of the PPP was defined as 100% and that of the PRP as 0%.
Then, 10 µl of physiological saline or a sample-containing physiological saline was added to the PRP and incubated at 37°C for one minute. A collagen solution (10 µl) at a concentration of 100 µg/ml was added to the PRP-containing solution (final concentration: 5 µg/ml) to induce aggregation and thereafter the transmittance was measured over 7 minutes. After the aggregation with collagen and ADP was confirmed, only those samples in which the maximum percent aggregation with collagen was at least 70% were subjected to the experiment.
The sample was dissolved in physiological saline to give a concentration of 2.2 x 10^-2 M and a 2-fold dilution series was prepared for use in the experiments. The samples insoluble in the physiological saline were dissolved in physiological saline containing 10% DMSO (dimethyl sulfoxide).
The results were calculated as follows: Percent Aggregation inhibition =(Maximum percent aggregation upon the addition of sample)/(Maximum percent aggregation upon the addtion of physiological saline) [formula]
A graph was constructed by plotting the percent of aggregation inhibition against the sample concentration and the concentration at which the aggregation was inhibited by 50% (IC50) was calculated from the graph.

Row | Structure (SMILES) | IC50 [nM]
1 | CCC(NC(=O)c1ccc(C(=N)N2CCN(c3ccc(F)cc3)CC2)cc1F)C(C)(C)C(=O)N1CCC(CC(=O)O)CC1 (stereo not drawn) [Example 26, N-(N-(4-(4-(4-fluorophenyl)-1-piperazinoimidoyl)-2-fluorobenzoyl)-β-ethyl-α,α-dimethyl-β-alanyl)-4-piperidineacetic acid] | 87
2 | CCC(NC(=O)c1ccc(C(=N)N2CCC(=O)CC2)cc1F)C(C)(C)C(=O)N1CCC(CC(=O)O)CC1 (stereo not drawn) [Example 12, N-(N-(4-(1-4-piperidonoimidoyl)-2-fluorobenzoyl)-β-ethyl-α,α-dimethyl-β-alanyl)-4-piperidineacetic acid] | 120
3 | CCC(NC(=O)c1ccc(C(=N)N2CCCCCC2)cc1F)C(C)(C)C(=O)N1CCC(CC(=O)O)CC1 (stereo not drawn) [Example 18, N-(N-(4-(1-hexamethyleneiminoimidoyl)-2-fluorobenzoyl)-β-ethyl-α,α-dimethyl-β-alanyl)-4-piperidineacetic acid] | 230
4 | CCC(NC(=O)c1ccc(C(=N)N2CCCCC2)cc1F)C(C)(C)C(=O)N1CCC(CC(=O)O)CC1 (stereo not drawn) [Example 8, N-(N-(4-(1-piperidinoimidoyl)-2-fluorobenzoyl)-β-ethyl-α,α-dimethyl-β-alanyl)-4-piperidineacetic acid] | 220
5 | CCC(NC(=O)c1ccc(C(=N)N2CCSC2)cc1F)C(C)(C)C(=O)N1CCC(CC(=O)O)CC1 (stereo not drawn) [Example 16, N-(N-(4-(3-thizolidinoimidoyl)-2-fluorobenzoyl)-β-ethyl-α,α-dimethyl-β-alanyl)-4-piperidineacetic acid] | 43
6 | CCC(NC(=O)c1ccc(C(=N)N2CCCC2)cc1F)C(C)(C)C(=O)N1CCC(CC(=O)O)CC1 (stereo not drawn) [Example 10, N-(N-(4-(1-pyrrolidinoimidoyl)-2-fluorobenzoyl)-β-ethyl-α,α-dimethyl-β-alanyl)-4-piperidineacetic acid] | 87
7 | CCC(NC(=O)c1ccc(C(=N)N2CCN(C)CC2)cc1F)C(C)(C)C(=O)N1CCC(CC(=O)O)CC1 (stereo not drawn) [Example 22, N-(N-(4-(4-methyl-1-piperazinoimidoyl)-2-fluorobenzoyl)-β-ethyl-α,α-dimethyl-β-alanyl)-4-piperidineacetic acid] | 69
8 | CCC(NC(=O)c1ccc(C(=N)N2CCC(O)CC2)cc1F)C(C)(C)C(=O)N1CCC(CC(=O)O)CC1 (stereo not drawn) [Example 14, N-(N-(4-(4-hydroxy-1-piperidinoimidoyl)-2-fluorobenzoyl)-β-ethyl-α,α-dimethyl-β-alanyl)-4-piperidineacetic acid] | 52
9 | CCC(NC(=O)c1ccc(C(=N)N2CCN(c3ccccc3)CC2)cc1F)C(C)(C)C(=O)N1CCC(CC(=O)O)CC1 (stereo not drawn) [Example 24, N-(N-(4-(4-phenyl-1-piperazinoimidoyl)-2-fluorobenzoyl)-β-ethyl-α,α-dimethyl-β-alanyl)-4-piperidineacetic acid] | 57
10 | CCC(NC(=O)c1ccc(C(=N)N2CCOCC2)cc1F)C(C)(C)C(=O)N1CCC(CC(=O)O)CC1 (stereo not drawn) [Example 4, N-{N-(4-(4-morpholinoimidoyl)-2-fluorobenzoyl)-β-ethyl-α,α-dimethyl-β-alanyl)-4-piperidineacetic acid] | 150
11 | CCC(NC(=O)c1ccc(C(=N)N2CCOCC2)cc1)C(C)(C)C(=O)N1CCC(CC(=O)O)CC1 (stereo not drawn) [Example 2, N-(N-(9-(4-morpholinoimidoyl)benzoyl)-β-ethyl-α,α-dimethyl-β-alanyl)-4-piperidineacetic acid] | 220
12 | CCC(NC(=O)c1ccc(C(=N)N2CCSCC2)cc1F)C(C)(C)C(=O)N1CCC(CC(=O)O)CC1 (stereo not drawn) [Example 20, N-(N-(4-(N-thiomorpholinoimidoyl)-2-fluorobenzoyl)-β-ethyl-α,α-dimethyl-β-alanyl)-4-piperidineacetic acid] | 120
13 | CC(C)(C(=O)N1CCC(CC(=O)O)CC1)C(NC(=O)c1ccc(C(=N)N2CCOCC2)cc1)c1ccccc1 (centres unmarked) [Example 28] | 240

Tested on: not listed separately
Test: Oral administration test: time course of the concentration in plasma after oral administration
Format: in vivo
Settings: male SD rats, 10 mg per kg, 30, 60 and 120 minutes after administration, HPLC, mean of three rats
Procedure: Male SD rats which had been starved from the previous day were used in this experiment. Two test substances, the compounds of Example 4 and Comparative Example 1, were dissolved in distilled water and administered into the stomach of rats with an oral probe. Each compound was administered to each rat in an amount of 10 mg per kg of body weight. Blood samples were collected 30, 60 and 120 minutes after the administration. The concentration of each compound which was in an active state (i.e., free carboxylic acid) in plasma was determined by HPLC.
In this Figure, the horizontal axis represents the time after the oral administration and the vertical axis represents the concentration of the active form of each compound in plasma. Each point represents the mean value for three rats and the standard error. […] When the peak values at 30 minutes after the oral administration are compared, the difference was about 10 times as great.

Row | Structure (SMILES) | concentration of the active form (free carboxylic acid) in plasma, compared with Comparative Example 1
14 | CCC(NC(=O)c1ccc(C(=N)N2CCOCC2)cc1F)C(C)(C)C(=O)N1CCC(CC(=O)O)CC1 (stereo not drawn) [Example 4, N-{N-(4-(4-morpholinoimidoyl)-2-fluorobenzoyl)-β-ethyl-α,α-dimethyl-β-alanyl)-4-piperidineacetic acid] | significantly higher concentration in plasma than the compound of Comparative Example 1 at every point of determination
